Test results: paper PMC4157788, “A Small Library of Synthetic Di-Substituted 1, 4-Naphthoquinones Induces ROS-Mediated Cell Death in Murine Fibroblasts” (PLoS ONE, 2014)
Read-outs that look alike come from different tables or passages of the source.

Legend:
[1] = test system: murine fibroblast cell line (L929); assay: MTT viability assay; assay type: cell-based; conditions: L929 cells; for Toxicity group: 48 hrs, MTT, Group I no difference from DMSO, Group II dose-responsive inhibition, Group III >50% inhibition at the lowest concentration; for IC50: Mus musculus, read-out: IC50 (concentration of compound that induces 50% inhibition of survival); for IC50 / IC50 (concentration of compound that induces 50% inhibition of survival): MTT assay, 48 hrs incubation, doubling dilutions
Method: The MTT (3-(4, 5-dimethylthiazol-2-yl)-2, 5-diphenyl tetrazolium bromide) viability assays were carried out as per manufacturers' instructions (Sigma). The L929 cells were plated at 50,000 cells per well in a 96-well flat-bottom plate (Becton-Dickinson Labware, Franklin Lakes, NJ). The cells were cultured with decreasing concentrations of the compounds (in duplicate), beginning at 0.50 mg/ml and decreasing by half over eleven additional dilutions. As controls, cells remained untreated (media alone) or were treated with equivalent dilutions of dimethylsulfoxide (DMSO, vehicle control) (Sigma). Following a 48 h incubation, the MTT reagent was added at 10% of the total volume per well. Following a 4 h incubation, the formed crystals were solubilized by removing approximately ¾ of the supernatant and adding 50 µl of solvent (10% Triton × and 1% 12 N HCl in isopropanol) (Sigma). All wells were vigorously pipetted (without forming bubbles) to help dissolve the crystals. The plates were then read in a 96-well plate spectrophotometer at 570 nm.

[2] = test system: L929 cells; assay: Light microscopy of compound-treated cells (morphology); assay type: cell-based, murine; conditions: 24 hr, compound at IC50 (H2O2 600 µM), light microscopy 40X
Method: The cells were cultured for 24 h at 37°C, 5% CO2. […] Digital images were captured using the AxioCam HR digital camera and were processed with Axiovision Software, Version 4.1.

[3] = test system: L929 cells; assay: Flow cytometry assessment of apoptosis (Annexin V-FITC / propidium iodide); assay type: cell-based, murine; conditions: 48 hrs, IC50 (lowest concentration tested for highly cytotoxic compounds), versus medium alone
Method: The cells were then washed in FACS buffer (phosphate buffered saline +2% fetal bovine serum), resuspended in 50 µl of buffer and then incubated with 30% normal mouse serum (Sigma) to prevent non-specific staining, for 15 min. at room temperature. The cells were then treated with 5 µl of FITC-conjugated annexin V (1 mg/ml stock) and 2 µl of propidium iodide (5 mg/ml stock). The cells were then mixed gently and incubated at room temperature for 15 minutes in the dark followed by an analysis by flow cytometry within the hour.

[4] = test system: caspase 3 in L929 cells; assay: Detection of active caspase-3 (colorimetric DEVD-pNA assay); assay type: cell-based, murine; conditions: 24 h treatment
Method: The assay was performed as per the manufacturers' instructions (BioSource International, Camarillo, CA). The L929 cells were plated at 3×10^6 cells per well in 6-well plates. The cells were then treated with the indicated compounds for 24 h. After treatment with the compounds, the cells were centrifuged, washed twice with 1× PBS, were re-suspended in 50 µL of chilled Cell Lysis Buffer and were incubated for 10 min. on ice. The samples were then centrifuged and the cytosolic extracts were then transferred to 96-well flat-bottom plates. Reaction buffer (5 µL of 1.0 M DTT to 500 µL of 2× Reaction buffer), made just prior to use, and was added to each well. DEVD-pNA substrate (5 µL) was then added to each well and the samples were incubated in the dark for an additional 2 h. The plates were then read on a spectrophotometer at a wavelength of 405 nm.

[5] = test system: L929 cells; assay: Detection of reactive oxygen species (ROS) by DHCF-DA; assay type: cell-based, murine; conditions: compound at IC50, 24 hrs, fluorometric assay
Method: Cells were plated at 50,000 cells per well in 96-well plates, protected or unprotected by 10 µM ascorbic acid. Following a 4 h incubation period, the cells were then treated with the indicated compounds at the IC50 or with H2O2 as a positive control. Twenty-four hours later, the plates were centrifuged and the supernatants were collected. The adherent cells were treated with 20 µL of 0.25% trypsin (Invitrogen) for 2 min. The cells were then removed and transferred to black-walled 96-well plates to prevent bleeding of fluorescence between sample wells. Dichlorofluorescein-Diacetate (10 µM) (Invitrogen - Molecular Probes), was then added to each well. The plates were then immediately read on a fluorescent plate reader using excitation wavelength of 485 nm and emission wavelength of 538 nm. Fluorescence was determined every 10 min over a 320 min. period.

[6] = test system: L929 cells; assay: Catalase and superoxide dismutase (SOD) protection assay (MTT viability); assay type: cell-based, murine; conditions: 48 hr; for Protection of compound-treated cells by SOD (viability): compound at IC50, SOD 0.5 mg/ml; for Protection of compound-treated cells by combination of catalase and SOD (viability): compound at IC50, catalase 1 mg/ml + SOD 0.5 mg/ml; for Protection of compound-treated cells by catalase (viability): compound at IC50, catalase 1 mg/ml
Method: L929 cells were plated at 50,000 cells/well in a 96-well flat-bottom plate. Catalase (1 mg/ml), SOD (0.5 mg/ml), or combinations of the two were added to the cells. The cells were also treated with the indicated compounds at a concentration that inhibited 50% of cellular viability or with media or DMSO as controls. Following a 48 h incubation period, cellular viability was assessed as described above (MTT assay).

[7] = test system: L929 cells; assay: Ascorbic acid protection assay (MTT viability); assay type: cell-based, murine; conditions: L929 cells pre-loaded for 4 h with 10 µM ascorbic acid, compound at IC50, 48 hrs
Method: […] The cells were then thoroughly washed with Hank's Balanced Salt Solution (HBSS (Invitrogen) and the MTT viability assay was conducted as described above.

[8] = test system: L929 cells; assay: Detection of mitochondrial membrane depolarization (DePsipher, flow cytometry); assay type: cell-based, murine; conditions: compound at IC50, DePsipher
Method: L929 cells (5×10^4 cells/well) were cultured in 12-well plates for 48 h in the presence of medium, DMSO, camptothecin (4 µM, positive control) or compound (IC50). The cells were then washed in FACS buffer resuspended in 100 µl of buffer. DePsipher (5, 5′6, 6′-tetrachloro-1, 1′, 3, 3′-tetraethylbenzimidazolylcarbocyanine iodide) (5 µl per sample) (Trevigen, Inc., Gaithersburg, MD) was then added. The cells were incubated at room temp., in the dark for a minimum of 15 min. The cells were assayed within the hour by flow cytometry. 10,000 events per sample were collected and analyzed by EXPO32 software.

Row | Structure (SMILES) | Toxicity group [1] | IC50 [1] [µg/mL] | IC50 ([1]; same value converted to µM) [µM] | Effect on cellular morphology [2] | Externalization of phosphatidylserine (Annexin V staining) [3] | further results
1 | O=C1C(c2ccccc2)=C(c2ccccc2)C(=O)c2ccccc21 [Compound 2, 2,3-diphenyl-1,4-napthoquinone] | Group II Intermediate toxicity | 30 | 96.7 | detrimental to cell survival | promoted externalization of PS significantly above that induced by medium alone | Activation of caspase 3 [4]: activated caspase 3 equivalently; Formation of intracellular reactive oxygen species (ROS) [5]: induced levels of ROS equal to that induced by H2O2; Protection of compound-treated cells by SOD (viability) [6]: did not protect; Protection of compound-treated cells by combination of catalase and SOD (viability) [6]: did not protect the cells against compound 2 beyond that provided by catalase alone; Protection of compound-treated cells by catalase (viability) [6]: partially protected; Protection of compound-treated cells by ascorbic acid pre-treatment (viability) [7]: partially protected from cell death
2 | CC1=C(C)C(=O)c2ccccc2C1=O [Compound 3, 2,3-dimethyl-1,4-napthoquinone] | – | 8 | 42.9 | – | promoted externalization of PS significantly above that induced by medium alone | –
3 | CC(C)=CCC1=C(O)C(=O)c2ccccc2C1=O [Compound 4, 2-hydroxy-3-(3-methyl-2 butenil)-1, 4 naphthoquinone] | – | 15 | 62 | – | promoted externalization of PS significantly above that induced by medium alone | –
4 | CC1=CC(=O)c2c(O)cccc2C1=O [Compound 5, 2-methyl-5-hydroxy-1,4-napthoquinone, reference compound] | Group III High toxicity | < 1 | < 5.3 | detrimental to cell survival | promoted externalization of PS significantly above that induced by medium alone | Activation of caspase 3 [4]: activated caspase 3 equivalently; Change in mitochondrial membrane potential (depolarization) [8]: does not activate mitochondrial depolarization; Formation of intracellular reactive oxygen species (ROS) [5]: induced levels of ROS equal to that induced by H2O2; Protection of compound-treated cells by SOD (viability) [6]: did not protect; Protection of compound-treated cells by combination of catalase and SOD (viability) [6]: did not protect; Protection of compound-treated cells by catalase (viability) [6]: did not protect; Protection of compound-treated cells by ascorbic acid pre-treatment (viability) [7]: partially protected from cell death
5 | O=C1C=CC(=O)c2ccccc21 [Compound 6, 1,4-napthoquinone] | – | < 1 | < 6.3 | – | promoted externalization of PS significantly above that induced by medium alone | Activation of caspase 3 [4]: activated caspase 3 equivalently
6 | O=C1C=CC(=O)c2c(O)cccc21 [Compound 7, 5-hydroxy-1,4-napthoquinone, reference compound] | – | < 1 | < 5.7 | – | promoted externalization of PS significantly above that induced by medium alone | –
7 | N#CC1=C(C#N)C(=O)C(Cl)=C(Cl)C1=O [Compound 8, 2,3-dichloro-5,6-dicyano-1,4-benzoquinone] | Group I No toxicity | – | – | – | – | IC50 (concentration of compound that induces 50% inhibition of survival) [1]: No inhibition
8 | CC1=C(C/C=C(\C)CCC[C@H](C)CCC[C@H](C)CCCC(C)C)C(=O)c2ccccc2C1=O [Compound 9, 2-methyl-3-phytyl-1,4-naphthoquinone, reference compound] | – | – | – | no effect on the cells | promoted externalization of PS significantly above that induced by medium alone | IC50 (concentration of compound that induces 50% inhibition of survival) [1]: No inhibition; Formation of intracellular reactive oxygen species (ROS) [5]: induced ROS equal to that generated in non-treated cells
9 | O=C1c2ccccc2C(=O)C2OC12 (stereo not drawn) [Compound 10, 1,4-napthoquinone epoxide] | – | 4 | 23 | – | – | –
10 | CCCC1=CC(=O)c2ccccc2C1=O [Compound 11, 2-propyl-1,4-napthoquinone] | Group II Low toxicity | 60 | 300 | – | promoted externalization of PS significantly above that induced by medium alone | –
11 | CCC1=C(C)C(=O)c2ccccc2C1=O [Compound 12, 2-ethyl-3-methyl-1,4-napthoquinone] | – | 30 | 150 | – | – | –
12 | OO [Compound H2O2, hydrogen peroxide] | – | – | – | rounded, granular, and vesiculated | – | –
